Tests used:
[1] = target: human full-length recombinant HDAC6 (Homo sapiens (Human), UniProt Q9UBN7); experiment: HDAC6 enzymatic activity assay (alternative protocol, Ac-Gly-Ala-Lys(Ac)-AMC); format: biochemical; settings: 5 nM enzyme, read-out: HDAC6 biochem
Method: (§1) Inhibition of HDAC enzymes was performed in 384-well plate format using human full-length recombinant HDAC1 and HDAC6, isolated from a baculovirus expression system in Sf9 cells (BPS Bioscience). Reaction buffer for HDAC1 contained 50 mM Tris HCl pH 8.0, 137 mM NaCl, 2.7 mM KCl, 1 mM MgCl2, 0.1 mg/mL BSA, and reaction buffer for HDAC6 contained 50 mM Tris/HCl, pH 8.0, 137 mM NaCl, 2.7 mM KCl, 250 μM EDTA, 1 mM DTT, 0.1 mg/mL BSA. Compounds (dissolved in 100% DMSO) or DMSO (vehicle) were diluted in assay buffer at 3× final assay concentration and then added to assay plates. SAHA ([…]) was used as a positive control. 3× final assay concentration of recombinant enzymes (final assay concentration is 4 nM and 5 nM for HDAC1 and HDAC6, respectively) were preincubated for 10 minutes with test compounds at room temperature. Afterwards, 3× final assay concentration of an acetylated fluorogenic peptide (Ac-Gly-Ala-Lys(Ac))-AMC, Bachem; final assay concentration is 12 µM and 40 µM for HDAC1 and HDAC6, respectively) was added to assay plate, allowing deacetylase reactions to incubate for 60 minutes at room temperature. The developer reagent containing 5 μM SAHA and 50 μM trypsin was added to stop the deacetylase reaction and generate AMNC-fluorescence. 15 minutes after addition of developer reagent, endpoint measurements were taken using CLARIOstar (BMG Labtech) plate reader (excitation/emission: 360/450). Fluorescence signals were normalized for each plate using GraphPad Prism software: reaction HDAC-substrate in presence of DMSO was set to 100% while reaction HDAC-substrate in presence of 10 μM SAHA was set to 0%.

[2] = target: catalytic domain 2 (CD2) of HDAC6 (Homo sapiens (Human), UniProt Q9UBN7); experiment: Cellular target engagement assay - NanoBRET; format: cell-based; settings: NanoLuc-HDAC6(CD2) in HEK293T cells, 2 hours, read-out: IC50 (HDAC6(CD2) interaction)
Chain of catalytic domain 2 (CD2) of HDAC6 (Q9UBN7 482-800): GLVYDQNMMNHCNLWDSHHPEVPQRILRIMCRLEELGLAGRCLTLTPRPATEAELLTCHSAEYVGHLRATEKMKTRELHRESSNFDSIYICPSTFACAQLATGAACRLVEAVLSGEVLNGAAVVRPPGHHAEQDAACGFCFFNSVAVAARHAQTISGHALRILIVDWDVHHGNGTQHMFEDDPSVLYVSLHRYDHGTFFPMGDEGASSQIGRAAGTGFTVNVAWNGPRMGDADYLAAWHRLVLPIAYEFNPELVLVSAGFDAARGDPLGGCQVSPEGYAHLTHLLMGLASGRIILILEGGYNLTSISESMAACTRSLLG

[3] = target: human full-length recombinant HDAC1 (Homo sapiens (Human), UniProt Q13547); experiment: HDAC1 enzymatic activity assay (alternative protocol, Ac-Gly-Ala-Lys(Ac)-AMC); format: biochemical; settings: 4 nM enzyme, read-out: HDAC1 biochem
Chain of human full-length recombinant HDAC1 (Q13547 whole entry): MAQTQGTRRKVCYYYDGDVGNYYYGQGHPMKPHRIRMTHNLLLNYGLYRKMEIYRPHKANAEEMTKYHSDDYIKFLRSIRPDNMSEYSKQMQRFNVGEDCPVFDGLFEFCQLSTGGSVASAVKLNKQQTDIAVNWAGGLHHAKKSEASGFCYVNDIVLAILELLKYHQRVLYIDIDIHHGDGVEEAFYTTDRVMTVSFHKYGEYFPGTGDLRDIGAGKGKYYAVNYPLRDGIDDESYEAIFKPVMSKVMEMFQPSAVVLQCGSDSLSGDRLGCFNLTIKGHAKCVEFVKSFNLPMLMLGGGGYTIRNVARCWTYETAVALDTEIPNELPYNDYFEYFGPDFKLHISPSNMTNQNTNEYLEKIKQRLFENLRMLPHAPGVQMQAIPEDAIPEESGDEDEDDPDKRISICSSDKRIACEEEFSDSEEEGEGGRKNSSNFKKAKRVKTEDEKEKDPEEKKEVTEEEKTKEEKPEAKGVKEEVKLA
Method: as §1

Chain of human full-length recombinant HDAC6 (Q9UBN7 whole entry): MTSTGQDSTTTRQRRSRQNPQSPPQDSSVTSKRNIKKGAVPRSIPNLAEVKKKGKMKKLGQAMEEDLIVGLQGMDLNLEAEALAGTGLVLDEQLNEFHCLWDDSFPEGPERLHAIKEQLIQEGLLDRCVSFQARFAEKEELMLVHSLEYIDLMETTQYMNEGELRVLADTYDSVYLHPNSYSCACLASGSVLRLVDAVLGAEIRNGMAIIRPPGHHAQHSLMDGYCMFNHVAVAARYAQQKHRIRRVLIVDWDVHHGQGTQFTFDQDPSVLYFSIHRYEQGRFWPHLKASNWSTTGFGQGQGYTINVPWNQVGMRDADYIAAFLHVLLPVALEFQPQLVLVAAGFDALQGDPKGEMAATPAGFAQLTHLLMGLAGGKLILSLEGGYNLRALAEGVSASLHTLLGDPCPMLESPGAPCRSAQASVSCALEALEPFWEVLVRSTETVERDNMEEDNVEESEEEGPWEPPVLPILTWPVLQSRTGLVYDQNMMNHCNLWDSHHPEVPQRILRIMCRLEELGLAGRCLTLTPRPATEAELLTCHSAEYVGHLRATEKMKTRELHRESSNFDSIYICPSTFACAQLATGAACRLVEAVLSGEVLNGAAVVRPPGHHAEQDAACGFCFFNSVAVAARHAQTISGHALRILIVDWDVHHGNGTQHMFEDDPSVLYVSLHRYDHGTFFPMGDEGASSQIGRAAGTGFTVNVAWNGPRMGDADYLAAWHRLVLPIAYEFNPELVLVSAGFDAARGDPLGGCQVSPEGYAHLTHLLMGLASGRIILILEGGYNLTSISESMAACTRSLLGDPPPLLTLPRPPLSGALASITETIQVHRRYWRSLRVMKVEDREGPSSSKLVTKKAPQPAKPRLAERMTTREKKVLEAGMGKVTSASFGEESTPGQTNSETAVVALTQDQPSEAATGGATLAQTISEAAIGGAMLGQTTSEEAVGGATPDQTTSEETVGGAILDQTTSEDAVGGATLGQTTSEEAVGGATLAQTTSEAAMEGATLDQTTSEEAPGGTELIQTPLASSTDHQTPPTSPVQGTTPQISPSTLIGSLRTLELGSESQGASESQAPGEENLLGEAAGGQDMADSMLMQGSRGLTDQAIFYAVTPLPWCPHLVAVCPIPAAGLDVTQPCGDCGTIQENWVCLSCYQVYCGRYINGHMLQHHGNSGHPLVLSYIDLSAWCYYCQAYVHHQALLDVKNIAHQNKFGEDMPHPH

| SMILES | IC50 [1] [nM] | IC50 [2] [nM] | IC50 [3] [nM] |
| --- | --- | --- | --- |
| Cc1nc(SCC(=O)c2ccc(CNC(=O)C(C)(C)C)s2)c2ccc(Cl)cc2n1 [Example 8, N-((5-(2-((7-chloro-2-methylquinazolin-4-yl)thio)acetyl)thiophen-2-yl)methyl)pivalamide] | ≤ 100 | 100 to 500 | > 10000 |
| Cc1nc(SCC(=O)c2ccc(CNC(=O)C(C)(C)C)s2)c2cc(F)ccc2n1 [Example 9, N-((5-(2-((6-fluoro-2-methylquinazolin-4-yl)thio)acetyl)thiophen-2-yl)methyl)pivalamide] | ≤ 100 | 100 to 500 | > 10000 |
| Cc1nc(SCC(=O)c2ccc(CNC(=O)C(C)(C)C)s2)c2ccc(F)cc2n1 [Example 10, N-((5-(2-((7-fluoro-2-methylquinazolin-4-yl)thio)acetyl)thiophen-2-yl)methyl)pivalamide] | ≤ 100 | 100 to 500 | > 10000 |
| Cc1ccc2c(SCC(=O)c3ccc(CNC(=O)C(C)(C)C)s3)nc(C)nc2c1 [Example 11, N-((5-(2-((2,7-dimethylquinazolin-4-yl)thio)acetyl)thiophen-2-yl)methyl)pivalamide] | ≤ 100 | 100 to 500 | > 10000 |
| COc1ccc2c(SCC(=O)c3ccc(CNC(=O)C(C)(C)C)s3)nc(C)nc2c1 [Example 12, N-((5-(2-((7-methoxy-2-methylquinazolin-4-yl)thio)acetyl)thiophen-2-yl)methyl)pivalamide] | ≤ 100 | 100 to 500 | > 10000 |
| Cc1nc(SCC(=O)c2ccc(CNC(=O)C(C)(C)C)s2)c2cccc(F)c2n1 [Example 15, N-((5-(2-((8-fluoro-2-methylquinazolin-4-yl)thio)acetyl)thiophen-2-yl)methyl)pivalamide] | ≤ 100 | 100 to 500 | > 10000 |
| CN(C)c1nc(SCC(=O)c2ccc(CNC(=O)C(C)(C)C)s2)c2ccccc2n1 [Example 16, N-((5-(2-((2-(dimethylamino)quinazolin-4-yl)thio)acetyl)thiophen-2-yl)methyl)pivalamide] | ≤ 100 | 100 to 500 | > 10000 |
| CC(C)(C)C(=O)NCc1ccc(C(=O)CSc2nc(C(F)F)nc3ccccc23)s1 [Example 19, N-((5-(2-((2-(difluoromethyl)quinazolin-4-yl)thio)acetyl)thiophen-2-yl)methyl)pivalamide] | ≤ 100 | 100 to 500 | > 10000 |
| Cn1ncc2c(SCC(=O)c3ccc(CNC(=O)C(C)(C)C)s3)nc(C(F)(F)F)nc21 [Example 20, N-((5-(2-((1-methyl-6-(trifluoromethyl)-1H-pyrazolo[3,4-d]pyrimidin-4-yl)thio)acetyl)thiophen-2-yl)methyl)pivalamide] | ≤ 100 | 100 to 500 | > 10000 |
| Cn1ncc2c(SCC(=O)c3ccc(CNC(=O)C(C)(C)C)s3)nc(C(F)F)nc21 [Example 21, N-((5-(2-((6-(difluoromethyl)-1-methyl-1H-pyrazolo[3,4-d]pyrimidin-4-yl)thio)acetyl)thiophen-2-yl)methyl)pivalamide] | ≤ 100 | 500 to 1000 | > 10000 |
| Cc1ccc2oc(SCC(=O)c3ccc(CNC(=O)C(C)(C)C)s3)nc2n1 [Example 23, N-((5-(2-((5-methyloxazolo[4,5-b]pyridine-2-yl)thio)acetyl)thiophen-2-yl)methyl)pivalamide] | ≤ 100 | 100 to 500 | 1000 to 10000 |
| CC1CCN(Cc2ccc(C(=O)CSc3ncnc4c3cnn4C)s2)C1=O (stereo not drawn) [Example 24, 3-methyl-1-((5-(2-((1-methyl-1H-pyrazolo[3,4-d]pyrimidin-4-yl)thio)acetyl)thiophen-2-yl)methyl)pyrrolidin-2-one] | ≤ 100 | 100 to 500 | > 10000 |
| Cn1ncc2c(SCC(=O)c3ccc(CN4CCCC4=O)s3)ncnc21 [Example 25, 1-((5-(2-((1-methyl-1H-pyrazolo[3,4-d]pyrimidin-4-yl)thio)acetyl)thiophen-2-yl)methyl)pyrrolidin-2-one] | ≤ 100 | 100 to 500 | > 10000 |

— US20250051319A1 (AUGUSTINE THERAPEUTICS, priority 2021, published 2025)
